From patent US20260262643A1, “HERBICIDAL BENZOXAZINES” (FMC CORPORATION, priority 2022, published 2026)

Key:
kochia [1] = assay: Test C preemergence; assay type: in vivo, Bassia scoparia; conditions: Preemergence, 1000 g ai/ha; visual rating after 10 days, 0 to 100 scale (0 no effect, 100 complete control)
Description: (§1) Seeds of plant species selected from barnyardgrass (Echinochloa crusgalli), blackgrass (Alopecurus myosuroides), corn (Zea mays), foxtail, giant (giant foxtail, Setaria faberi), green foxtail (Setaria viridis), goosegrass (Eleusine indica), kochia (Bassia scoparia), oat, wild (wild oat, Avena fatua), pigweed, palmer (palmer amaranth, palmer pigweed, Amaranthus palmeri), Pigweed, Redroot (redroot pigweed, Amaranthus retroflexus), ragweed (common ragweed, Ambrosia artemisiifolia), ryegrass, Italian ([…] ryegrass, Lolium multiflorum), soybean (Glycine max), and wheat (Triticum aestivum) were planted into a blend of loam soil and sand and treated preemergence with a directed soil spray using test chemicals formulated in a non-phytotoxic solvent mixture which included a surfactant. At the same time, plants selected from these crops and weed species and also galium (catchweed bedstraw, Galium aparine) and horseweed (Erigeron canadensis) were planted in pots containing the same blend of loam soil and sand and treated with postemergence applications of test chemicals formulated in the same manner. Plants ranged in height from 2 to 10 cm and were in the one- to two-leaf stage for the postemergence treatment. Treated plants and untreated controls were maintained in a greenhouse for 10 days, after which time all treated plants were compared to untreated controls and visually evaluated for injury. Plant response ratings, summarized in Table C, are based on a 0 to 100 scale where 0 is no effect and 100 is complete control. A dash (-) response means no test result.

ragweed [2] = assay: Test C preemergence; assay type: in vivo, Ambrosia artemisiifolia; conditions: Preemergence, 1000 g ai/ha; visual rating after 10 days, 0 to 100 scale (0 no effect, 100 complete control)
Description: as §1

kochia [3] = assay: Test C postemergence; assay type: in vivo, Bassia scoparia; conditions: Postemergence, 1000 g ai/ha
Description: as §1

ragweed [4] = assay: Test C postemergence; assay type: in vivo, Ambrosia artemisiifolia; conditions: Postemergence, 1000 g ai/ha
Description: as §1

barnyardgrass [5] = assay: Test C postemergence; assay type: in vivo, Echinochloa crusgalli; conditions: Postemergence, 1000 g ai/ha
Description: as §1

galium = assay: Test C postemergence; assay type: in vivo, Galium aparine; conditions: Postemergence, 1000 g ai/ha
Description: as §1

barnyardgrass [6] = assay: Test C preemergence; assay type: in vivo, Echinochloa crusgalli; conditions: Preemergence, 1000 g ai/ha; visual rating after 10 days, 0 to 100 scale (0 no effect, 100 complete control)
Description: as §1

ryegrass, Italian [7] = assay: Test C preemergence; assay type: in vivo, Lolium multiflorum; conditions: Preemergence, 1000 g ai/ha; visual rating after 10 days, 0 to 100 scale (0 no effect, 100 complete control)
Description: as §1

green foxtail [8] = assay: Test C postemergence; assay type: in vivo, Setaria viridis; conditions: Postemergence, 1000 g ai/ha
Description: as §1

pigweed, palmer [9] = assay: Test C postemergence; assay type: in vivo, Amaranthus palmeri; conditions: Postemergence, 1000 g ai/ha
Description: as §1

horseweed = assay: Test C postemergence; assay type: in vivo, Erigeron canadensis; conditions: Postemergence, 1000 g ai/ha
Description: as §1

ryegrass, Italian [10] = assay: Test C postemergence; assay type: in vivo, Lolium multiflorum; conditions: Postemergence, 1000 g ai/ha
Description: as §1

blackgrass [11] = assay: Test C postemergence; assay type: in vivo, Alopecurus myosuroides; conditions: Postemergence, 1000 g ai/ha
Description: as §1

green foxtail [12] = assay: Test C preemergence; assay type: in vivo, Setaria viridis; conditions: Preemergence, 1000 g ai/ha; visual rating after 10 days, 0 to 100 scale (0 no effect, 100 complete control)
Description: as §1

pigweed, palmer [13] = assay: Test C preemergence; assay type: in vivo, Amaranthus palmeri; conditions: Preemergence, 1000 g ai/ha; visual rating after 10 days, 0 to 100 scale (0 no effect, 100 complete control)
Description: as §1

blackgrass [14] = assay: Test C preemergence; assay type: in vivo, Alopecurus myosuroides; conditions: Preemergence, 1000 g ai/ha; visual rating after 10 days, 0 to 100 scale (0 no effect, 100 complete control)
Description: as §1

[15] = 0 to 100 scale, 0 no effect, 100 complete control
[16] = 10 days, visual 0 to 100 scale (0 no effect, 100 complete control)

Row | Structure (SMILES) | Plant response rating, Kochia (kochia [1]) | Plant response rating, Ragweed (ragweed [2]) | Plant response rating, Kochia (kochia [3]; [15]) | Plant response rating, Ragweed (ragweed [4]; [15]) | Plant response rating, Barnyardgrass (barnyardgrass [5]; [15]) | Plant response rating, Galium (galium; [15]) | Plant response rating, Barnyardgrass (barnyardgrass [6]) | Plant response rating, Ryegrass, Italian (ryegrass, Italian [7]) | Plant response rating, Foxtail, Green (green foxtail [8]; [15]) | Plant response rating, Foxtail, Green (green foxtail [12]) | Plant response rating, Pigweed, Palmer (pigweed, palmer [13]) | Plant response rating, Blackgrass (blackgrass [14]) | Plant response rating, Kochia (kochia [3]; [16]) | Plant response rating, Ragweed (ragweed [4]; [16]) | Plant response rating, Galium (galium; [16]) | Plant response rating, Foxtail, Green (green foxtail [8]; [16]) | Plant response rating, Pigweed, Palmer (pigweed, palmer [9]; [16]) | Plant response rating, Horseweed (horseweed; [16]) | Plant response rating, Ryegrass, Italian (ryegrass, Italian [10]; [16]) | Plant response rating, Blackgrass (blackgrass [11]; [16]) | also measured
1 | Cc1cnc(-c2cccc(C(=O)N3C[C@H](C)Oc4c(C)cccc43)c2)cn1 [Compound 162] | 0 | 0 | 70 | 20 | 10 | 50 | 60 | 70 | 10 | 90 | 30 | 30 | – | – | – | – | – | – | – | – | Plant response rating, Pigweed, Palmer (pigweed, palmer [9]; [15]): 20; Plant response rating, Horseweed (horseweed; [15]): 0; Plant response rating, Ryegrass, Italian (ryegrass, Italian [10]; [15]): 40; Plant response rating, Blackgrass (blackgrass [11]; [15]): 0
2 | Cc1cc(-c2cccc(C(=O)N3C[C@H](C)Oc4c(C)cccc43)c2)ccn1 [Compound 163] | 0 | 0 | 50 | 20 | 0 | 0 | 0 | 20 | 10 | 10 | 0 | 10 | – | – | – | – | – | – | – | – | Plant response rating, Pigweed, Palmer (pigweed, palmer [9]; [15]): 30; Plant response rating, Horseweed (horseweed; [15]): 0; Plant response rating, Ryegrass, Italian (ryegrass, Italian [10]; [15]): 0; Plant response rating, Blackgrass (blackgrass [11]; [15]): 20
3 | C[C@H]1CN(C(=O)c2cccc(N3CCOCC3)c2)c2cccc(Cl)c2O1 [Compound 166] | 0 | 0 | 0 | 0 | 0 | 20 | 0 | 0 | 0 | 0 | 0 | 0 | – | – | – | – | – | – | – | – | Plant response rating, Pigweed, Palmer (pigweed, palmer [9]; [15]): 10; Plant response rating, Horseweed (horseweed; [15]): 0; Plant response rating, Ryegrass, Italian (ryegrass, Italian [10]; [15]): 0; Plant response rating, Blackgrass (blackgrass [11]; [15]): 0
4 | Cc1ccc(-c2cccc(C(=O)N3C[C@H](C)Oc4c(Cl)cccc43)c2)o1 [Compound 204] | 20 | 0 | 0 | 20 | 0 | 50 | 0 | 40 | 0 | 0 | 10 | 0 | – | – | – | – | – | – | – | – | Plant response rating, Pigweed, Palmer (pigweed, palmer [9]; [15]): 10; Plant response rating, Horseweed (horseweed; [15]): 0; Plant response rating, Ryegrass, Italian (ryegrass, Italian [10]; [15]): 0; Plant response rating, Blackgrass (blackgrass [11]; [15]): 0
5 | C[C@H]1CN(C(=O)c2cccc(-c3ccn(C)n3)c2)c2cccc(Cl)c2O1 [Compound 205] | 50 | 0 | – | – | 10 | – | 0 | 40 | – | 40 | 60 | 0 | 50 | 20 | 0 | 30 | 30 | 0 | 40 | 30 | –
6 | Cc1ccn(-c2cccc(C(=O)N3C[C@H](C)Oc4c(Cl)cccc43)c2)n1 [Compound 206] | 10 | 0 | – | – | 0 | – | 30 | 80 | – | 20 | 30 | 0 | 20 | 0 | 40 | 0 | 50 | 0 | 40 | 0 | –
7 | Cc1cc(-c2cccc(C(=O)N3C[C@H](C)Oc4c(C)cccc43)c2)cnn1 [Compound 209] | 0 | 0 | – | – | 0 | – | 0 | 30 | – | 0 | 0 | 0 | 0 | 0 | 40 | 0 | 0 | 20 | 0 | 0 | –
8 | Cc1cnc(-c2cccc(C(=O)N3C[C@H](C)Oc4c(C)cccc43)c2)s1 [Compound 243] | 0 | 30 | – | – | 10 | – | 60 | 70 | – | 70 | 0 | 0 | 10 | 0 | 60 | 0 | 60 | 40 | 50 | 0 | –
9 | Cc1ccc(-c2cccc(C(=O)N3C[C@H](C)Oc4c(C)cccc43)c2)s1 [Compound 244] | 0 | 50 | – | – | 20 | – | 50 | 90 | – | 50 | 0 | 0 | 50 | 20 | 60 | 20 | 60 | 90 | 80 | 20 | –
10 | C[C@H]1CN(C(=O)c2cccc(-c3cn(C)cn3)c2)c2cccc(Cl)c2O1 [Compound 293] | 0 | 0 | – | – | – | – | 0 | 0 | – | 0 | 10 | 0 | 0 | 0 | 0 | 0 | 10 | 30 | 0 | 0 | Plant response rating, Barnyardgrass (barnyardgrass [5]; [16]): 0
11 | Cc1cccc2c1O[C@@H](C)CN2C(=O)c1cccc(-n2cncc2Br)c1 [Compound 297] | 0 | 0 | – | – | – | – | 0 | 0 | – | 0 | 0 | 0 | 30 | 0 | 0 | 0 | 0 | 20 | 0 | 0 | Plant response rating, Barnyardgrass (barnyardgrass [5]; [16]): 0
